Laboratory results as given in patent US10836775B2, “6,6-fused heteroaryl piperidine ether allosteric modulators of the M4 muscarinic acetylcholine receptor” (Merck Sharp & Dohme Corp., priority 2016, dated 2020).
pEC50: −log10 of the molar value.

The molecules below were run against T1, human M4 muscarinic acetylcholine receptor (Homo sapiens, UniProt P08173) (assay: human FLIPR-based M4 PAM assay (CHO-K1 cells, human M4 receptor and Gαqi5, calcium dye fluorescence, acetylcholine at 20% of maximum)). Conditions: inflection point (IP) of 4 parameter logistic dose response curve; CHO-K1 cells with human M4 receptor and Gαqi5; FLIPR Tetra.
T1 construct: expressed in transfected cells; host or cells: CHO-K1
T1 sequence (P08173 1-479): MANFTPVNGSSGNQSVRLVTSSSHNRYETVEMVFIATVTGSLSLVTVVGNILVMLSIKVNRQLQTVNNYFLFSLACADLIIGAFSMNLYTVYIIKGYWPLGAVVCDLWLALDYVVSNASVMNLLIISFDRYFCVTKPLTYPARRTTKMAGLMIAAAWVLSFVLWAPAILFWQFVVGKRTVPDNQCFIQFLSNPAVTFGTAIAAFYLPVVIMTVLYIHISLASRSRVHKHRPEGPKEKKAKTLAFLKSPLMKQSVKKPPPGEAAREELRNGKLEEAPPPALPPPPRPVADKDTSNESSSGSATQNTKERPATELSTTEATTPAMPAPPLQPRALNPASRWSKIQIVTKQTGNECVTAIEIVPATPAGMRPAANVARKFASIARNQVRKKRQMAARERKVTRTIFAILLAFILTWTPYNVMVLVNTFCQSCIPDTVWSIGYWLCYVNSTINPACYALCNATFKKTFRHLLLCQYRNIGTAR
Assay type: cell-based
Protocol: In a typical experiment the M4 muscarinic acetylcholine receptor modulating activity of the compounds of the present invention was determined in accordance with the following experimental method. […] On the day of assay, growth medium is removed, the cells are washed 2 times with wash buffer, and cells are incubated in dye loading buffer at 37° C., 5% CO2 for ˜1 hour. […] Next, 10 uL of acetylcholine is added (final concentration calculated so as to achieve 20% of the maximum acetycholine response), and the fluorescence reading is continued for 3.5 min. In some cases, a third addition of acetylcholine (final concentration calculated to achieve 70% of the maximal acetylcholine response) is performed. The resulting dose response curves are fit to a 4 parameter logistic equation and the final result is determined as the inflection point (IP) of the curve
CHO-K1 cells stably transfected with human M4 receptor and chimeric G-protein Gαqi5 are thawed from liquid N2 storage, resuspended in growth medium, plated in black, clear bottom 384 well plates, and incubated 16-20 hours at 37° C., 5% CO2.
On the day of assay, growth medium is removed, the cells are washed 2 times with wash buffer, and cells are incubated in dye loading buffer at 37° C., 5% CO2 for ˜1 h. […] Next, 10 uL of acetylcholine is added (final concentration calculated so as to achieve 20% of the maximum acetycholine response), and the fluorescence reading is continued for 3.5 min. In some cases, a third addition of acetylcholine (final concentration calculated to achieve 70% of the maximal acetylcholine response) is performed.

Compound	pEC50
Cc1cc2c(=O)[nH]c(=O)[nH]c2nc1N1CCC(OCC2CC2)CC1 [Example 33, 7-(4-(cyclopropyl-methoxy)piperidin-1-yl)-6-methylpyrido[2,3-d]pyrimidine-2,4(1H,3H)-dione]	7.28
COc1ccc(OC2CCN(c3nc4occc(=O)c4cc3C)CC2)cn1 [Example 35, 7-(4-((6-methoxypyridin-3-yl)oxy)piperidin-1-yl)-6-methyl-4H-pyrano[2,3-b]pyridin-4-one]	7.42
Cc1cc2c(=O)[nH]c(=O)[nH]c2nc1N1CCC(OCC(C)C)CC1 [Example 36, 7-(4-isobutoxy-piperidin-1-yl)-6-methylpyrido[2,3-d]pyrimidine-2,4(1H,3H)-dione]	6.86
Cc1cc2c(=O)[nH]c(=O)[nH]c2nc1N1CCC(OCC2CCCC2)CC1 [Example 38, 7-(4-(cyclopentyl-methoxy)piperidin-1-yl)-6-methylpyrido[2,3-d]pyrimidine-2,4(1H,3H)-dione]	6.95
COc1ccc(OC2CCN(c3nc4nc(C)n(C)c(=O)c4cc3C)CC2)cn1 [Example 40, 7-(4-((6-methoxypyridin-3-yl)oxy)piperidin-1-yl)-2,3,6-trimethyl-pyrido[2,3-d]pyrimidin-4(3H)-one]	6.81
COc1ccc(OC2CCN(c3nc4oc(C)cc(=O)c4cc3C)CC2)cn1 [Example 41, 7-(4-((6-methoxypyridin-3-yl)oxy)piperidin-1-yl)-2,6-dimethyl-4H-pyrano[2,3-b]pyridin-4-one]	7.00
COc1ccc(OC2CCN(c3nc4cnn(CCO)c(=O)c4cc3C)CC2)cn1 [Example 42, 6-(2-Hydroxyethyl)-2-(4-((6-methoxypyridin-3-yl)oxy)piperidin-1-yl)-3-methylpyrido[2,3-d]pyridazin-5(6H)-one]	6.96
COc1ccc(OC2CCN(c3nc4ncn(C)c(=O)c4cc3C)CC2)cn1 [Example 44, 7-(4-((6-Methoxypyridin-3-yl)oxy)piperidin-1-yl)-3,6-dimethylpyrido[2,3-d]pyrimidin-4(3H)-one]	6.87
Cc1cc2c(=O)n(C)c(C)nc2nc1N1CCC(Oc2cnc3c(c2)COC3)CC1 [Example 45, 7-(4-((5,7-dihydrofuro[3,4-b]pyridin-3-yl)oxy)piperidin-1-yl)-2,3,6-trimethyl-pyrido[2,3-d]pyrimidin-4(3H)-one]	6.44
COc1ccc(OC2CCN(c3nc4[nH]c(=O)oc(=O)c4cc3C)CC2)cn1 [Example 47, 7-(4-((6-Methoxypyridin-3-yl)oxy)piperidin-1-yl)-6-methyl-2H-pyrido[2,3-d][1,3]oxazine-2,4(1H)-dione]	7.11
COc1ccc(OC2CCN(c3nc4c(cnc(=O)n4C)cc3C)CC2)cn1 [Example 49, 7-(4-((6-Methoxypyridin-3-yl)oxy)piperidin-1-yl)-1,6-dimethylpyrido[2,3-d]pyrimidin-2(1H)-one]	6.68
COc1ccc(OC2CCN(c3nc4[nH]c(=N)[nH]c(=O)c4cc3C)CC2)cn1 [Example 50, 2-Imino-7-(4-((6-methoxypyridin-3-yl)oxy)piperidin-1-yl)-6-methyl-2,3-dihydropyrido[2,3-d]pyrimidin-4(1H)-one]	6.33
COc1ccc(OC2CCN(c3nc4oc(=O)[nH]c(=O)c4cc3C)CC2)cn1 [Example 52, 7-(4-((6-Methoxypyridin-3-yl)oxy)piperidin-1-yl)-6-methyl-2H-pyrido[3,2-e][1,3]oxazine-2,4(3H)-dione]	7.82
COc1ccc(OC2CCN(c3nc4cc(C)oc(=O)c4cc3C)CC2)cn1 [Example 55, 2-(4-((6-Methoxypyridin-3-yl)oxy)piperidin-1-yl)-3,7-dimethyl-5H-pyrano[4,3-b]pyridin-5-one]	7.15

More lines, in order of rising pEC50, values ahead:

pEC50	Compound
6.23	COc1ccc(OC2CCN(c3nc4c(cc3C)CCNC4=O)CC2)cn1 [Example 46, 2-(4-((6-Methoxypyridin-3-yl)oxy)piperidin-1-yl)-3-methyl-6,7-dihydro-1,7-naphthyridin-8(51H)-one]
6.44	Cc1cc2c(=O)[nH]c(=O)[nH]c2nc1N1CCC(OCC2CCCCC2)CC1 [Example 34, 7-(4-(cyclohexyl-methoxy)piperidin-1-yl)-6-methylpyrido[2,3-d]pyrimidine-2,4(1H,3H)-dione]
6.57	COc1ccc(OC2CCN(c3nc4c(cc3C)CNC(=O)N4)CC2)cn1 [Example 48, 7-(4-((6-Methoxypyridin-3-yl)oxy)piperidin-1-yl)-6-methyl-3,4-dihydropyrido[2,3-d]pyrimidin-2(1H)-one]
6.59	COc1ccc(OC2CCN(c3nc4c(=O)[nH][nH]c(=O)c4cc3C)CC2)cn1 [Example 53, 2-(4-((6-Methoxypyridin-3-yl)oxy)piperidin-1-yl)-3-methyl-6,7-dihydropyrido[2,3-d]pyridazine-5,8-dione]
6.88	Cc1cc2c(=O)n(CCO)ncc2nc1N1CCC(OCC2(C)CC2)CC1 [Example 43, 6-(2-hydroxyethyl)-3-methyl-2-(4-((1-methylcyclopropyl)methoxy)piperidin-1-yl)pyrido[2,3-d]pyridazin-5(6H)-one]
7.07	COc1ccc(OC2CCN(c3nc4ccoc(=O)c4cc3C)CC2)cn1 [Example 54, 2-(4-((6-Methoxypyridin-3-yl)oxy)piperidin-1-yl)-3-methyl-5H-pyrano[4,3-b]pyridin-5-one]
7.15	CCc1cc2c(=O)[nH]ncc2nc1N1CCC(Oc2ccc(OC)nc2)CC1 [Example 37, 3-ethyl-2-(4-((6-methoxypyridin-3-yl)oxy)piperidin-1-yl)pyrido[2,3-d]pyridazin-5(6H)-one]
7.34	COc1ccc(OC2CCN(c3nc4cnn(CO)c(=O)c4cc3C)CC2)cn1 [Example 51, 6-(Hydroxymethyl)-2-(4-((6-methoxypyridin-3-yl)oxy)piperidin-1-yl)-3-methylpyrido[2,3-d]pyridazin-5(6H)-one]
7.49	COCc1nc2nc(N3CCC(Oc4cccc(C#N)c4)CC3)c(C)cc2c(=O)[nH]1 [Example 39, 3-((1-(2-(methoxymethyl)-6-methyl-4-oxo-3,4-dihydropyrido[2,3-d]pyrimidin-7-yl)piperidin-4-yl)oxy)benzonitrile]
